Assay results: patent US6893846B2, “Primers for use in detecting beta-lactamases” (priority 1998, dated 2005)
Converted amounts (≈) assume the structure as drawn. Like-named read-outs stand apart in the source and are kept apart here.

Key:
K. pneumoniae 225 [1] = experiment: Three-dimensional test (enzymatic inactivation of antibiotics); settings: beta-lactamase-mediated hydrolysis by K. pneumoniae 225, lawn E. coli ATCC 25922
E. coli = experiment: Agar dilution MIC, South African isolates; format: cell-based, Escherichia coli; settings: tzp with tazobactam 4 μg/ml
From the text: (§1) The strains were provided in response to a request for all strains of Enterobacteriaceae, lacking inducible beta-lactamases, that were intermediate or resistant to cefotaxime or ceftazidime. […]

[2] = target: single beta-lactamase in K. pneumoniae cell extracts (Klebsiella pneumoniae, UniProt P0AD64, G234S); experiment: Spectrophotometric hydrolysis assay on crude beta-lactamase extracts; settings: K. pneumoniae Pit 100 extract, beta-lactamase pI 7.6; 100 μM substrate
[3] = target: single beta-lactamase in K. pneumoniae cell extracts (Klebsiella pneumoniae, UniProt P0AD64, E235K/G234S); experiment: as above; settings: K. pneumoniae Pit 82 extract, beta-lactamase pI 8.2; 100 μM substrate
[4] = target: single beta-lactamase in K. pneumoniae cell extracts (Escherichia coli, UniProt P62593, E102K/R162S); experiment: as above; settings: K. pneumoniae Pit 16 extract, beta-lactamase pI 5.6; 100 μM substrate
K. pneumoniae 225 [5] = experiment: NCCLS disk diffusion assay; format: cell-based, Klebsiella pneumoniae; settings: disk diffusion, Kleb 225
K. pneumoniae 225 [6] = experiment: NCCLS microdilution susceptibility test; format: cell-based, Klebsiella pneumoniae; settings: Klebsiella pneumoniae, 225
[7] = target: beta-lactamases in sonic extracts of P. mirabilis (Escherichia coli, UniProt P62593, E102K/R162S); experiment: Isoelectric focusing overlay: cefotaxime hydrolysis and inhibitors; settings: beta-lactamase pI 5.6 (TEM-10 or 26), 0.75 μg/ml cefotaxime
[8] = system: E. coli HB101 transformant (17 kb plasmid); settings: disk diffusion, Tr (17 kb) = transformant E. coli HB101
[9] = target: beta-lactamases in sonic extracts of E. coli (Escherichia coli, UniProt P62593); experiment: Isoelectric focusing overlay: cefotaxime hydrolysis and inhibitors; settings: 0.75 μg/ml cefotaxime
[10] = system: beta-lactamases in sonic extracts of E. coli; experiment: as above; settings: 0.75 μg/ml cefotaxime
E. aerogenes [11] = format: cell-based, Enterobacter aerogenes
Protocol: Antibiotic susceptibilities were determined by standard disk-diffusion (NCCLS Standard M2-A6) and agar-dilution (NCCLS Standard M7-A4) procedures. Disks were obtained from Becton Dickinson Microbiology Systems (Cockeysville, Md.). […] Throughout this study, results were interpreted using NCCLS criteria for disk diffusion (NCCLS M2-A6) and broth dilution (NCCLS M7-A4).

[12] = system: E. coli C600 transconjugant; settings: disk diffusion, Tc = transconjugate E. coli C600
P. mirabilis = experiment: Agar dilution MIC, South African isolates; format: cell-based, Proteus mirabilis; settings: 4 strains, tzp with tazobactam 4 μg/ml
Outline: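 Clinical isolates from South African hospitals, intermediate or resistant to cefotaxime or ceftazidime and lacking inducible beta-lactamases, were tested by NCCLS M7-T2 agar dilution. Quality-control strains E. coli ATCC 25922 and 35218, P. aeruginosa ATCC 27853 and S. aureus ATCC 29213 were run alongside. Results were interpreted by NCCLS criteria.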

[13] = system: beta-lactamases in sonic extracts of E. aerogenes; experiment: Isoelectric focusing overlay: cefotaxime hydrolysis, inhibitors, induction; settings: 0.75 μg/ml cefotaxime
[14] = target: single beta-lactamase in P. mirabilis cell extracts (Escherichia coli, UniProt P62593, E102K/R162S); experiment: Spectrophotometric hydrolysis assay on crude beta-lactamase extracts; settings: P. mirabilis Pit 85 extract, beta-lactamase pI 5.6; 100 μM substrate
E. aerogenes [15] = experiment: Double-disk potentiation test; format: cell-based, Enterobacter aerogenes; settings: all the E. aerogenes strains selected; potentiation by clavulanic acid
From the text: This test described by Jarlier et al., Rev. Infect. Dis.

K. pneumoniae = experiment: Agar dilution MIC, South African isolates; format: cell-based, Klebsiella pneumoniae; settings: tzp with tazobactam 4 μg/ml
From the text: as §1

CO/N=C(\C(=O)N[C@@H]1C(=O)N2C(C(=O)O)=C(COC(C)=O)CS[C@H]12)c1csc(N)n1 [cefotaxime]
three dimensional test (K. pneumoniae 225 [1]): positive | MIC range (E. coli; resistance phenotype Ec1, 3 strains): 1 µg/mL | MIC range (E. coli; resistance phenotype Ec2, 1 strain): 16 µg/mL | Hydrolysis [2]: 11 nmol of substrate hydrolyzed/m | Hydrolysis [3]: 11 nmol of substrate hydrolyzed/m | Hydrolysis [4]: 4 nmol of substrate hydrolyzed/m | Zone Size (K. pneumoniae 225 [5]): 15 mm | MIC (K. pneumoniae 225 [6]): 16 µg/mL (≈ 35.1 µM) | ctx hydrolysis [7]: Yes | Zone Size [8]: 34 mm | ctx hydrolysis ([9]; Ec1, beta-lactamase pI 5.4 (TEM-1)): No | ctx hydrolysis ([9]; Ec2, beta-lactamase pI 5.4 (TEM-1)): No | ctx hydrolysis ([10]; Ec1, beta-lactamase pI 5.6 (TEM-10 or 26)): Yes | ctx hydrolysis ([10]; Ec2, beta-lactamase pI 7.6 (SHV-2 or 8)): Yes | MIC range (E. aerogenes [11]; 1 E. aerogenes strain with Bush group 1 and group 2be (SHV-3) enzymes): 1 µg/mL (≈ 2.2 µM) | MIC range (E. aerogenes [11]; 1 E. aerogenes strain with Bush group 1 and group 2be (SHV-5) enzymes): 1 to 2 µg/mL | MIC range (E. aerogenes [11]; 29 E. aerogenes strains with Bush group 1 and group 2be (SHV-4) enzymes): 1 to 2 µg/mL | susceptibility by MIC (E. aerogenes [11]; all E. aerogenes strains): decreased susceptibility | Zone Size [12]: 12 mm | MIC range (P. mirabilis): 0.25 to 0.5 µg/mL | Ctx Hydrolysis ([13]; SHV-3 strain (1), Bush group 1 enzyme pI 8.3): no | Ctx Hydrolysis ([13]; SHV-3 strain (1), Bush group 2be enzyme pI 6.9): yes | Ctx Hydrolysis ([13]; SHV-4 strains (29), Bush group 1 enzyme pI 8.3): no | Ctx Hydrolysis ([13]; SHV-4 strains (29), Bush group 2be enzyme pI 7.8): yes | Ctx Hydrolysis ([13]; SHV-5 strain (1), Bush group 1 enzyme pI 8.3): no | Ctx Hydrolysis ([13]; SHV-5 strain (1), Bush group 2Be enzyme pI 8.0): yes | Hydrolysis [14]: 5 nmol of substrate hydrolyzed/m | double disk test (E. aerogenes [15]): positive | MIC range (K. pneumoniae; resistance phenotype Kpn1, 8 strains): 0.25 to 1 µg/mL | MIC range (K. pneumoniae; resistance phenotype Kpn2, 28 strains): 4 to 64 µg/mL | MIC range (K. pneumoniae; resistance phenotype Kpn3 (K. pneumoniae Pit 68), 1 strain, listed as ctx): 4 µg/mL
